The text below walks through data of patent publication US8940783B2, “Pheophorbide-α conjugates and their uses” (Gwangju Institute of Science and Technology, priority 2012, dated 2015).

In data set [1] the test system is HeLa (cervical cancer) cells. The experiment in a line: SRB cell viability assay, HeLa. Type of data set: cell-based. The following applies: 10 μM, three days. The method, then: (§1) The AT-84 is a squamous cell carcinoma, spontaneously arising from oral mucosa and syngenic to C3H/HeJ mice (which were kindly provided by Dr. E. J. Shillitoe, State University of New York, Upstate Medical University). MCF7, KB, HCT116, PC3, U-87MG, SK-OV-3, AT-84 cells were grown in RPMI 1640. The adherent cell line HepG2, HeLa, A549, YD-10B cells were cultured in DMEM medium. Both media were supplemented with 10% FBS (Invitrogen Co.), and antibiotic-antimycotic (Invitrogen Co.). All cell lines were incubated in a humidified atmosphere containing 5% CO2 at 37° C. The adherent cells were detached from the culture flasks by removal of the growth medium and addition of 1 mL trypsin/EDTA solution (0.05% w/v trypsin, 0.016% w/v EDTA). After 1-2 min incubation at 37° C., when the cells had detached from the surface, trypsinization was stopped by the addition of 4 mL of DMEM medium containing 10% FBS. […]
(§2) A cell viability assay was conducted to test the synthesized compounds on various cancer cells including MCF7 (breast adenocarcinoma), KB (mouth carcinoma), HeLa (cervical cancer), U-87MG (glioblastoma), A549 (lung adenocarcinoma), AT-84 (oral cancer), and YD-10B (oral cancer) cells. Briefly, the cells were incubated for three days with the synthesized compounds (6, 7, 10, and 13) and the viability was measured by the protocol of SRB assay. […]

The subject of data set [2] is YD-10B (oral cancer) cells. The data set is described as follows: SRB cell viability assay, YD-10B. The following applies: YD-10B cells, 10 μM, three days. The class given is cell-based. The method, then:
as §1, §2

In data set [3] the test system is MCF7 (breast adenocarcinoma) cells. The experiment in a line: SRB cell viability assay, MCF7. Type of data set: cell-based. The following applies: 10 μM, three days. As for the experimental part:
as §1, §2

Data set [4] in a line: Fluorescence spectrometry. The class given is physicochemical. Particulars: for blue shift of fluorescence emission spectra at pH 4 from those at pH 10 / intensity of fluorescence at pH 4 and pH 10 / intensity of fluorescence in 50% aqueous MeOH compared with 100% MeOH: 420 nm excitation, 6 at 1 μM; for blue shift of fluorescence emission spectra at pH 4 from those at pH 10 / intensity of fluorescence at pH 4 and pH 10: 7 at 0.3 μM; for intensity of fluorescence in 50% aqueous MeOH compared with 100% MeOH: 7 at 0.5 μM; for fluorescence emission peak: 1 μM in MeOH. As for the experimental part: Fluorescence measurements were done using a FluoroMate FS-2. Steady-state fluorescence spectra were generally taken at 1 μM of compounds (1, 2, 6, 10, and 13) and 0.5 μM of compound 7 in MeOH. The samples were illuminated with 420 and 440 nm of light and fluorescence emission was scanned from 500 to 800 nm. Fluorescence spectra in both aqueous and organic solvent were generally taken at 1 μM of compound 6 and 0.5 μM of compound 7 in 100% MeOH and 50% aqueous MeOH by illumination with 420 nm of light. The pH profiles of fluorescence spectra were generally taken at 1 μM of compound 6 and 0.3 μM of compound 7 at pH 4 and 10 in MeOH by illumination with 420 nm of light.
To determine fluorescence quenching effect of the conjugates, the intensity of fluorescence of each compound with same concentration was analyzed using fluorescence spectrophotometer. The fluorescence emission spectrum of compounds at 1 μM (1, 2, 6, 10, and 13) and 0.5 μM (7) was obtained by excitation wavelengths (420 and 440 nm). […] Therefore, it could be speculated that the background fluorescence of the conjugates as they are administered invivo, may not be detected until internalization and cleavage of the conjugates by enzymatic attack in cancer cells are occurred so that the photoactivity of Pa and DOX may be recovered. In the case of Pa-PTX conjugate (7), fluorescence quenching effect was not observed as PTX is not a fluorophore (FIG. 3). To verify fluorescence quenching due to a close contact effect, spectral comparison of fluorescence emission of compounds 6 (1 μM) and 7 (0.5 μM) in aqueous and organic solvent was investigated by 420 nm excitation wavelength using fluorescence spectrophotometer. In contact quenching, two molecules interact by proton-coupled electron transfer through the formation of hydrogen bonds. In aqueous solutions, electrostatic, steric and hydrophobic forces control the formation of hydrogen bonds. Therefore, the quenching efficiency of conjugates could depend on the employed solvents.

Data set [5] deals with KB (mouth carcinoma) cells. The data set is described as follows: SRB cell viability assay, KB. Type of data set: cell-based. The following applies: 10 μM, three days. The method, then: as §1, §2
In a further data set the test system is various cancer cells. The data set is described as follows: SRB cell viability assay, various cancer cells (overall comparison). Type of data set: cell-based. The following applies: same concentration (10 μM), three days; 6 compared with DOX; 10 and 13 compared with Pa-DOX direct conjugate. The method, then: The AT-84 is a squamous cell carcinoma, spontaneously arising from oral mucosa and syngenic to C3H/HeJ mice (which were kindly provided by Dr. E. J. Shillitoe, State University of New York, Upstate Medical University). MCF7, KB, HCT116, PC3, U-87MG, SK-OV-3, AT-84 cells were grown in RPMI 1640. The adherent cell line HepG2, HeLa, A549, YD-10B cells were cultured in DMEM medium. Both media were supplemented with 10% FBS (Invitrogen Co.), and antibiotic-antimycotic (Invitrogen Co.). All cell lines were incubated in a humidified atmosphere containing 5% CO2 at 37° C. The adherent cells were detached from the culture flasks by removal of the growth medium and addition of 1 mL trypsin/EDTA solution (0.05% w/v trypsin, 0.016% w/v EDTA). After 1-2 min incubation at 37° C., when the cells had detached from the surface, trypsinization was stopped by the addition of 4 mL of DMEM medium containing 10% FBS.
The cells were plated at a density of 50,000 cells/mL and well in 96-well plates and incubated with inhibitors for the time indicated. The SRB assay was carried out as described by Skehan et al. (Skehan, P. et al., J. Natl. Cancer Inst. 1990, 82, 1107). The drug incubation period of the cells was stopped by the addition of 50 μL of ice cold TCA solution into the growth medium.
A cell viability assay was conducted to test the synthesized compounds on various cancer cells including MCF7 (breast adenocarcinoma), KB (mouth carcinoma), HeLa (cervical cancer), U-87MG (glioblastoma), A549 (lung adenocarcinoma), AT-84 (oral cancer), and YD-10B (oral cancer) cells. Briefly, the cells were incubated for three days with the synthesized compounds (6, 7, 10, and 13) and the viability was measured by the protocol of SRB assay. […] The results may be interpreted with possibilities that the conjugates may suffer from entering the cells or being cleaved in the cells. Infact, the cellular uptake of the conjugates was occurred slower than Pa itself as shown in the study of Section 2.4. […]

The subject of data set [6] is U-87MG (glioblastoma) cells. The data set is described as follows: SRB cell viability assay, U-87MG. Type of data set: cell-based. Particulars: U-87MG cells, 10 μM, three days. The method, then: as §1, §2
Data set [7] concerns AT-84 (oral cancer) cells. The experiment in a line: SRB cell viability assay, AT-84. The class given is cell-based, mice. The following applies: AT-84 cells, 10 μM, three days. The method, then: as §1, §2

In the case of `C=Cc1c(C)c2cc3nc(c4c5[nH]c(cc6nc(cc1[nH]2)C(C)=C6CC)c(C)c5C(=O)C4C(=O)OC)[C@@H](CCC(=O)O[C@H](C(=O)O[C@H]1C[C@@]2(O)[C@@H](OC(=O)c4ccccc4)[C@@H]4[C@]5(OC(C)=O)CO[C@@H]5C[C@H](O)[C@@]4(C)C(=O)[C@H](OC(C)=O)C(=C1C)C2(C)C)[C@H](NC(=O)c1ccccc1)c1ccccc1)[C@@H]3C` (stereo partly drawn) [Compound 7, Pheophorbide-α-Paclitaxel], the “inhibition of growth / cell viability” value in data set [1], in data set [2], in data set [3] and in data set [5] was “potent inhibitory activity” each time. For the same compound, the fluorescence quenching effect result in data set [4] (0.5 μM in MeOH, excitation 420 and 440 nm) is on record as “not observed”. Further, the “blue shift of fluorescence emission spectra at pH 4 from those at pH 10” value in data set [4] is “about 10 nm”. In addition, in data set [4], the “intensity of fluorescence at pH 4 and pH 10” value is “increased at pH 4 but decreased at pH 10”. In data set [4], the “intensity of fluorescence in 50% aqueous MeOH compared with 100% MeOH” value is given as “significantly reduced”.

In data set [4] (excitation 420 and 440 nm), `C=Cc1c(C)c2cc3nc(c4c5[nH]c(cc6nc(cc1[nH]2)C(C)=C6CC)c(C)c5C(=O)C4C(=O)OC)[C@@H](CCC(=O)O)[C@@H]3C` (stereo partly drawn) [Compound 1, Pheophorbide-α] registered a fluorescence emission peak of 665 nm.

In the case of `COc1cccc2c1C(=O)c1c(O)c3c(c(O)c1C2=O)C[C@@](O)(C(=O)CO)C[C@@H]3O[C@H]1C[C@H](N)[C@H](O)[C@H](C)O1` [Compound 2, doxorubicin, reference compound], the fluorescence emission peak in data set [4] (excitation 420 and 440 nm) stood at 585 nm.

Consider “Pheophorbide-α-2-hydroxycinnamic acid-doxorubicin [Compound 10]”, for which the “inhibitory activity of the cell viability relative to comparator” value in the data set with various cancer cells was “generally less inhibitory activity”. Moreover, in data set [4] (excitation 420 and 440 nm), the fluorescence emission peak is 670 nm.

With `C=Cc1c(C)c2cc3nc(c4c5[nH]c(cc6nc(cc1[nH]2)C(C)=C6CC)c(C)c5C(=O)C4C(=O)OC)[C@@H](CCC(=O)NC1C[C@@H](O[C@H]2C[C@](O)(C(=O)CO)Cc4c(O)c5c(c(O)c42)C(=O)c2c(OC)cccc2C5=O)O[C@H](C)[C@@H]1O)[C@@H]3C` (stereo partly drawn) [Compound 6, Pheophorbide-α-Doxorubicin], the “inhibition of growth / cell viability” value in data set [1], in data set [6], in data set [7] and in data set [3] was “moderately inhibited” throughout. In addition, in the data set on various cancer cells, the “inhibitory activity of the cell viability relative to comparator” value was “lower activity than DOX itself”. The compound also displayed a fluorescence emission peak in data set [4] (excitation 420 and 440 nm) of 670 nm. The “blue shift of fluorescence emission spectra at pH 4 from those at pH 10” value in data set [4] is listed as “about 10 nm”. For the same compound, the “intensity of fluorescence at pH 4 and pH 10” value in data set [4] is reported as “increased at pH 4 but decreased at pH 10”. Further, the “intensity of fluorescence in 50% aqueous MeOH compared with 100% MeOH” value in data set [4] was “significantly reduced”.

With “Pheophorbide-α-4-aminobenzyl alcohol-4-nitrophenyl formate-doxorubicin [Compound 13]”, the “inhibitory activity of the cell viability relative to comparator” value with various cancer cells is “generally less inhibitory activity”. In data set [4] (excitation 420 and 440 nm), this compound came in with a fluorescence emission peak of 670 nm.
